For 19 compounds, EC50 results are on record in US20240294508A1, “RIP1 MODULATORS INCLUDING AZETIDINE CYCLIC UREAS, PREPARATIONS, AND USES THEREOF” (SIRONAX LTD., priority 2021, published 2024).

Molecules are shown by their SMILES.

The subject of the assay is HT-29 cells. Nature of the assay: HT29 cells 0FBS assay in vitro: TNF-α/SMAC mimetic/zVAD-FMK induced necroptosis, CellTiter-Glo cell viability (RIP1 inhibitory activity). In kind it is cell-based. As to conditions: Homo sapiens, FBS free medium, TNF-α (10 ng/ml) + SMAC mimetic (6 uM) + zVAD-FMK (10 μM), 20 hours, geometric mean EC50. The procedure, abridged: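 HT-29 cells (5,000/well, overnight) switched to FBS-free McCOY's 5A with TNF-α (10 ng/ml), SMAC mimetic (6 uM) and zVAD-FMK (10 μM) to drive necroptosis, plus compound, for 20 hours at 37° C. Viability read by CellTiter-Glo luminescence; geometric mean EC50 from 10-point duplicate dose-response.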
Regarding `Cc1nn(-c2cc(OC3CN(C(=O)N4N=CC[C@H]4c4cc(F)cc(C#N)c4)C3)c(F)cn2)c(C)c1C(=O)NC1CC1` [Compound 86, (S)-1-(4-((1-(5-(3-cyano-5-fluorophenyl)-4,5-dihydro-1H-pyrazole-1-carbonyl)azetidin-3-yl)oxy)-5-fluoropyridin-2-yl)-N-cyclopropyl-3,5-dimethyl-1H-pyrazole-4-carboxamide], the EC50 is 0.1 to 100 nM. For the compound `CCNC(=O)c1c(C)nn(-c2cc(OC3CN(C(=O)N4N=CC[C@H]4c4cc(F)cc(C#N)c4)C3)c(F)cn2)c1C` [Compound 87, (S)-1-(4-((1-(5-(3-cyano-5-fluorophenyl)-4,5-dihydro-1H-pyrazole-1-carbonyl)azetidin-3-yl)oxy)-5-fluoropyridin-2-yl)-N-ethyl-3,5-dimethyl-1H-pyrazole-4-carboxamide], the concentration giving a half-maximal response (EC50) lay in the range of 0.1 to 100 nM. In the case of `Cc1ncc(C2CC=NN2C(=O)N2CC(Oc3cc(-c4c(C)cnn4C)ncc3F)C2)s1` (stereo not shown) [Compound 88, (3-((2-(1,4-dimethyl-1H-pyrazol-5-yl)-5-fluoropyridin-4-yl)oxy)azetidin-1-yl)(5-(2-methylthiazol-5-yl)-4,5-dihydro-1H-pyrazol-1-yl)methanone], the concentration giving a half-maximal response (EC50) lay within 0.1 to 100 nM. With `Cc1noc(C)c1-c1cc(OC2CN(C(=O)N3N=CC[C@H]3c3cc(F)cc(C#N)c3)C2)c(F)cn1` [Compound 89, (S)-3-(1-(3-((2-(3,5-dimethylisoxazol-4-yl)-5-fluoropyridin-4-yl)oxy)azetidine-1-carbonyl)-4,5-dihydro-1H-pyrazol-5-yl)-5-fluorobenzonitrile], the concentration for a half-maximal effect (EC50) was in the range of 0.1 to 100 nM.

For the compound `Cc1nc(C2CC=NN2C(=O)N2CC(Oc3cc(-c4c(C)cnn4C)ncc3F)C2)co1` (stereo not shown) [Compound 90, (3-((2-(1,4-dimethyl-1H-pyrazol-5-yl)-5-fluoropyridin-4-yl)oxy)azetidin-1-yl)(5-(2-methyloxazol-4-yl)-4,5-dihydro-1H-pyrazol-1-yl)methanone], the EC50 lay in the range of 0.1 to 100 nM. Then `Cc1cnn(C)c1-c1cc(OC2CN(C(=O)N3N=CCC3c3cncs3)C2)c(F)cn1` (stereo not shown) [Compound 91, (3-((2-(1,4-dimethyl-1H-pyrazol-5-yl)-5-fluoropyridin-4-yl)oxy)azetidin-1-yl)(5-(thiazol-5-yl)-4,5-dihydro-1H-pyrazol-1-yl)methanone], with 0.1 to 100 nM; and `Cc1cnn(C)c1-c1cc(OC2CN(C(=O)N3N=CCC3c3nccs3)C2)c(F)cn1` (stereo not shown) [Compound 92, (3-((2-(1,4-dimethyl-1H-pyrazol-5-yl)-5-fluoropyridin-4-yl)oxy)azetidin-1-yl)(5-(thiazol-2-yl)-4,5-dihydro-1H-pyrazol-1-yl)methanone], with 0.1 to 100 nM; and `Cc1cnn(C)c1-c1cc(OC2CN(C(=O)N3N=CCC3c3ncccc3Cl)C2)c(F)cn1` (stereo not shown) [Compound 93, (5-(3-chloropyridin-2-yl)-4,5-dihydro-1H-pyrazol-1-yl)(3-((2-(1,4-dimethyl-1H-pyrazol-5-yl)-5-fluoropyridin-4-yl)oxy)azetidin-1-yl)methanone], with 0.1 to 100 nM. Regarding `Cc1cnc(C2CC=NN2C(=O)N2CC(Oc3cc(-c4c(C)cnn4C)ncc3F)C2)s1` (stereo not shown) [Compound 94, (3-((2-(1,4-dimethyl-1H-pyrazol-5-yl)-5-fluoropyridin-4-yl)oxy)azetidin-1-yl)(5-(5-methylthiazol-2-yl)-4,5-dihydro-1H-pyrazol-1-yl)methanone], the concentration giving a half-maximal response (EC50) was 0.1 to 100 nM.

In the case of `Cc1cnn(C)c1-c1cc(OC2CN(C(=O)N3N=CCC3c3cscn3)C2)c(F)cn1` (stereo not shown) [Compound 95, (3-((2-(1,4-dimethyl-1H-pyrazol-5-yl)-5-fluoropyridin-4-yl)oxy)azetidin-1-yl)(5-(thiazol-4-yl)-4,5-dihydro-1H-pyrazol-1-yl)methanone], the EC50 lay within 0.1 to 100 nM.

For the compound `Cc1nc(C2CC=NN2C(=O)N2CC(Oc3cc(-c4c(C)cnn4C)ncc3F)C2)cs1` (stereo not shown) [Compound 96, (3-((2-(1,4-dimethyl-1H-pyrazol-5-yl)-5-fluoropyridin-4-yl)oxy)azetidin-1-yl)(5-(2-methylthiazol-4-yl)-4,5-dihydro-1H-pyrazol-1-yl)methanone], the half-maximal effective concentration (EC50) lay within 0.1 to 100 nM.

In the case of `Cc1csc(C2CC=NN2C(=O)N2CC(Oc3cc(-c4c(C)cnn4C)ncc3F)C2)n1` (stereo not shown) [Compound 97, (3-((2-(1,4-dimethyl-1H-pyrazol-5-yl)-5-fluoropyridin-4-yl)oxy)azetidin-1-yl)(5-(4-methylthiazol-2-yl)-4,5-dihydro-1H-pyrazol-1-yl)methanone], the EC50 lay within 100 to 1000 nM.

As for `Cc1nn(-c2cc(OC3CN(C(=O)N4N=CC[C@@H]4c4cccc(F)c4)C3)c(F)cn2)c(C)c1C(N)=O` [Compound 98, (R)-1-(5-fluoro-4-((1-(5-(3-fluorophenyl)-4,5-dihydro-1H-pyrazole-1-carbonyl)azetidin-3-yl)oxy)pyridin-2-yl)-3,5-dimethyl-1H-pyrazole-4-carb oxamide], the EC50 lay in the range of 1000 to 10000 nM. `Cc1cnn(C)c1-c1cc(OC2CN(C(=O)N3N=CCC3c3cccnc3)C2)c(F)cn1` (stereo not shown) [Compound 99, (3-((2-(1,4-dimethyl-1H-pyrazol-5-yl)-5-fluoropyridin-4-yl)oxy)azetidin-1-yl)(5-(pyridin-3-yl)-4,5-dihydro-1H-pyrazol-1-yl)methanone]: the 50% effective concentration (EC50) was in the range of 0.1 to 100 nM. For `Cc1cnn(C)c1-c1cc(OC2CN(C(=O)N3N=CCC3c3ccccn3)C2)c(F)cn1` (stereo not shown) [Compound 100, (3-((2-(1,4-dimethyl-1H-pyrazol-5-yl)-5-fluoropyridin-4-yl)oxy)azetidin-1-yl)(5-(pyridin-2-yl)-4,5-dihydro-1H-pyrazol-1-yl)methanone], the EC50 was 0.1 to 100 nM.

In the case of `Cc1cncc(C2CC=NN2C(=O)N2CC(Oc3cc(-c4c(C)cnn4C)ncc3F)C2)c1` (stereo not shown) [Compound 101, (3-((2-(1,4-dimethyl-1H-pyrazol-5-yl)-5-fluoropyridin-4-yl)oxy)azetidin-1-yl)(5-(5-methylpyridin-3-yl)-4,5-dihydro-1H-pyrazol-1-yl)methanone], the concentration giving a half-maximal response (EC50) fell in the range of 0.1 to 100 nM. Regarding `Cc1nn(-c2cc(OC3CN(C(=O)N4N=CC[C@H]4c4cc(F)cc(F)c4F)C3)c(F)cn2)c(C)c1C(N)=O` [Compound 102, (S)-1-(5-fluoro-4-((1-(5-(2,3,5-trifluorophenyl)-4,5-dihydro-1H-pyrazole-1-carbonyl)azetidin-3-yl)oxy)pyridin-2-yl)-3,5-dimethyl-1H-pyrazole-4-carboxamide], the EC50 lay within 0.1 to 100 nM. Take `Cc1nn(-c2cc(OC3CN(C(=O)N4N=CC[C@@H]4c4cc(F)cc(F)c4F)C3)c(F)cn2)c(C)c1C(N)=O` [Compound 103, (R)-1-(5-fluoro-4-((1-(5-(2,3,5-trifluorophenyl)-4,5-dihydro-1H-pyrazole-1-carbonyl)azetidin-3-yl)oxy)pyridin-2-yl)-3,5-dimethyl-1H-pyrazole-4-carboxamide]: the half-maximal effective concentration (EC50) fell in the range of 1000 to 10000 nM. The figure for `Cc1nn(-c2cc(OC3CN(C(=O)N4N=CC[C@H]4c4cc(F)cc(F)c4F)C3)c(F)cn2)c(C)c1C(=O)O` [Compound 104, (S)-1-(5-fluoro-4-((1-(5-(2,3,5-trifluorophenyl)-4,5-dihydro-1H-pyrazole-1-carbonyl)azetidin-3-yl)oxy)pyridin-2-yl)-3,5-dimethyl-1H-pyrazole-4-carboxylic acid] is 0.1 to 100 nM.
